# Values of other authors as cited in article PMC6311893, “Computational prediction of plasma protein binding of cyclic peptides from small molecule experimental data using sparse modeling techniques” (BMC Bioinformatics, 2018).
# Like-named read-outs stand apart in the source and are kept apart here.
# System: plasma protein
# Conditions: cited from earlier work
# [1] = fraction bound to plasma protein, small molecule dataset, sheet 1-SM, Set Dtr, ref Ingle et al.
# [2] = fraction bound to plasma protein, small molecule dataset, sheet 1-SM (Set Dte = test, Dtr = training), ref Ingle et al.
# [3] = fraction bound to plasma protein, small molecule dataset, sheet 1-SM, ref Ingle et al.
molecule,measurement,setting,value
O=c1[nH]cnc2c1ncn2[C@H]1CC[C@@H](CO)O1 [Didanosine],PPB (fb),[1],0.04
Cc1ccc(/C(=C\CN2CCCC2)c2ccccn2)cc1 [triprolidine],PPB (fb),[1],0.9
Cc1nnc2n1-c1ccc(Cl)cc1C(c1ccccc1)=NC2 [Alprazolam],PPB (fb),plasma,0.72
CO[C@H]1O[C@@H]2O[C@@]3(C)CC[C@H]4[C@H](C)CC[C@@H]([C@H]1C)[C@@]24OO3 [artemether],PPB (fb),[2],0.5
CC1(C)SC2C(NC(=O)C(O)c3ccccc3)C(=O)N2C1C(=O)O (stereo not shown) [penicillin37],PPB (fb),[3],0.53
CCCOC(=O)Cc1ccc(OCC(=O)N(CC)CC)c(OC)c1 [propanidid],PPB (fb),plasma,0.75
CCC1(CC)C(=O)NC(=O)NC1=O [barbital],PPB (fb),plasma,0.1
CC(C(=O)NCCCN1CCCC1)c1ccc(OS(=O)(=O)C(F)(F)F)cc1 (stereo not shown) [JMC_05],PPB (fb),[3],0.62
CC(CN(C)C)CN1c2ccccc2CCc2ccccc21 (stereo not shown) [Trimipramine],PPB (fb),[3],0.95
Cn1cc(NC(=O)c2cc(NC(=O)c3cc(NC(=O)c4nsc(Cl)c4Cl)cn3C)cn2C)cc1C(=O)NCCC(=N)N [GSQ1530],PPB (fb),[3],0.89
COc1nc(C)nc(Cl)c1N=C1NCCN1 [Moxonidine],PPB (fb),[1],0.06
CC1Cc2ccccc2N1NC(=O)c1ccc(Cl)c(S(N)(=O)=O)c1 (stereo not shown) [indapamide],PPB (fb),[3],0.76
CC1(C)SC2C(NC(=O)COc3ccc(F)cc3)C(=O)N2C1C(=O)O (stereo not shown) [penicillin54],PPB (fb),[3],0.81
CO[C@@]1(NC(=O)C(C(=O)O)c2ccc(O)cc2)C(=O)N2C(C(=O)O)=C(CSc3nnnn3C)CO[C@@H]21 (stereo partly shown) [Moxalactam],PPB (fb),[1],0.53
CC1(C)S[C@@H]2[C@H](NC(=O)[C@H](N)c3ccccc3)C(=O)N2[C@H]1C(=O)O [Ampicillin],PPB (fb),plasma,0.16
N=C(N)NC(=O)c1nc(Cl)c(N)nc1N [amiloride],PPB (fb),[2],0.4
Cc1ccc2ccccc2c1C(=O)NC1C(=O)N2C1SC(C)(C)C2C(=O)O (stereo not shown) [penicillin66],PPB (fb),[3],0.82
COc1ccc2c(c1)c(CC(=O)O)c(C)n2C(=O)c1ccc(Cl)cc1 [Indomethacin],PPB (fb),[1],0.97
CO/N=C(\C(=O)N[C@@H]1C(=O)N2C(C(=O)O)=C(COC(C)=O)CS[C@H]12)c1csc(N)n1 [Cefotaxime],PPB (fb),[2],0.38
O=C(O)COC(=O)Cc1ccccc1Nc1c(Cl)cccc1Cl [aceclofenac],PPB (fb),[2],0.99
CC(Oc1cccc2ccccc12)C(=O)NC1C(=O)N2C1SC(C)(C)C2C(=O)O (stereo not shown) [penicillin70],PPB (fb),[3],0.97
O=C(O)c1cn(-c2ccc(O)cc2)c2cc(N3CCNCC3)c(F)cc2c1=O [8c(p-OH)],PPB (fb),[2],0.35
CN[C@@H](C)Cc1ccccc1 [Methamphetamine],PPB (fb),plasma,0.15
CC(C)NCC(O)COc1ccc(COCCOC(C)C)cc1 (stereo not shown) [Bisoprolol],PPB (fb),[2],0.32
CC(C)(Oc1ccc(Cl)cc1)C(=O)O [clofibric acid],PPB (fb),[2],0.98
O=C(O)[C@H]1/C(=C/CO)O[C@@H]2CC(=O)N21 [clavulanate],PPB (fb),[2],0.23
O=C(OCC(O)CO)c1ccccc1Nc1ccnc2c(C(F)(F)F)cccc12 (stereo not shown) [floctafenine],PPB (fb),[3],0.85
C=CCN1CC[C@]23c4c5ccc(O)c4O[C@H]2C(=O)CC[C@@]3(O)[C@H]1C5 [Naloxone],PPB (fb),[1],0.45
CC(=O)N1CCN(c2ccc(OCC3COC(Cn4ccnc4)(c4ccc(Cl)cc4Cl)O3)cc2)CC1 (stereo not shown) [ketoconazole],PPB (fb),[2],0.92
CCOC(=O)OC(C)OC(=O)[C@@H]1N2C(=O)[C@@H](NC(=O)[C@H](N)c3ccccc3)[C@H]2SC1(C)C (stereo partly shown) [bacampicillin],PPB (fb),[2],0.2
CN(C)Cc1nnc2n1-c1ccc(Cl)cc1C(c1ccccc1)=NC2 [Adinazolam],PPB (fb),plasma,0.69
C=CC1=C(C(=O)O)N2C(=O)[C@@H](NC(=O)/C(=N\O)c3csc(N)n3)[C@H]2SC1 [cefdinir],PPB (fb),[2],0.65
CC(C)NCC(O)COc1ccc(CCOCC2CC2)cc1 (stereo not shown) [Betaxolol],PPB (fb),[1],0.56
C=C1CC[C@H](O)C/C1=C/C=C1\CCC[C@]2(C)[C@@H]([C@H](C)CCCC(C)(C)O)CC[C@@H]12 [calcifediol],PPB (fb),[2],0.8
C[C@H]1O[C@@H](n2cc(F)c(=O)[nH]c2=O)[C@H](O)[C@@H]1O [Doxifluridine],PPB (fb),[1],0.39
CN/C(=N/CCSCc1nc[nH]c1C)NC#N [Cimetidine],PPB (fb),[1],0.2
CCCCCCCCCCC[C@@H](C[C@@H]1OC(=O)[C@H]1CCCCCC)OC(=O)[C@H](CC(C)C)NC=O [orlistat],PPB (fb),[3],0.99
CC(C)(C)c1ccc(C(O)CCCN2CCC(C(O)(c3ccccc3)c3ccccc3)CC2)cc1 (stereo not shown) [terfenadine],PPB (fb),[3],0.84
CN[C@@H]1[C@@H](O)[C@@H](O[C@@H]2[C@@H](O)[C@H](O[C@H]3OC(CN)=CC[C@H]3N)[C@@H](N)C[C@H]2N)OC[C@]1(C)O [Sisomicin],PPB (fb),[3],0.85
CC(C)(Oc1ccccc1)C(=O)NC1C(=O)N2C1SC(C)(C)C2C(=O)O (stereo not shown) [penicillin49],PPB (fb),[3],0.92
CC(C)C[C@H]1C(=O)N2CCC[C@H]2[C@]2(O)O[C@](NC(=O)[C@@H]3C=C4c5cccc6[nH]c(Br)c(c56)C[C@H]4N(C)C3)(C(C)C)C(=O)N12 [bromocriptine],PPB (fb),[2],0.95
COC(=O)[C@H]1[C@@H](OC(=O)c2ccccc2)C[C@@H]2CC[C@H]1N2C [Cocaine],PPB (fb),plasma,0.89
CC(C)(C)c1ccc(C(=O)CCCN2CCC(OC(c3ccccc3)c3ccccc3)CC2)cc1 [ebastine],PPB (fb),[2],0.98
CCC(CC)(CC)C(=O)NC1C(=O)N2C1SC(C)(C)C2C(=O)O (stereo not shown) [penicillin20],PPB (fb),[3],0.94
CNC(C)C1CCC(N)C(OC2C(N)CC(N)C(OC3OCC(C)(O)C(NC)C3O)C2O)O1 (stereo not shown) [Gentamicin],PPB (fb),plasma,0.1
O=C(O)CCNC(=O)c1ccccc1 [Betamipron],PPB (fb),[1],0.83
C#C[C@]1(O)CC[C@H]2[C@@H]3CCC4=CC(=NO)CC[C@@H]4[C@H]3CC[C@@]21CC (mixture of isomers) [norelgestromin],PPB (fb),[3],0.97
CC(C)Cc1ccc(C(C)C(=O)NCCCN2CCCC2)cc1 (stereo not shown) [JMC_06],PPB (fb),[3],0.85
Pyridostigmine,PPB (fb),plasma,0
CCN(C)C(=O)Oc1cccc([C@H](C)N(C)C)c1 [Rivastigmine],PPB (fb),plasma,0.4
CC1(C)O[C@@H]2[C@@H](CO[C@@]3(COS(N)(=O)=O)OC(C)(C)O[C@@H]23)O1 [topiramate],PPB (fb),[1],0.15
O=C(O)c1cn(-c2ccccc2C(F)(F)F)c2cc(N3CCNCC3)c(F)cc2c1=O [3a(o-CF3)],PPB (fb),[2],0.38
CCCCNc1cc(C(=O)O)cc(S(N)(=O)=O)c1Oc1ccccc1 [Bumetanide],PPB (fb),[1],0.96
CN1C2CCCC1CC(NC(=O)c1nn(C)c3ccccc13)C2 (stereo not shown) [Granisetron],PPB (fb),[1],0.65
CCCCCCCN(CC)CCCC(O)c1ccc(NS(C)(=O)=O)cc1 (stereo not shown) [Ibutilide],PPB (fb),[1],0.4
C=C[C@H]1C[N@@]2CC[C@H]1C[C@H]2[C@H](O)c1ccnc2ccc(OC)cc12 [Quinine],PPB (fb),[1],0.81
CN1[C@@H]2CC[C@H]1C[C@@H](OC(=O)c1c[nH]c3ccccc13)C2 [tropisetron],PPB (fb),[1],0.7
COc1c2occc2cc2ccc(=O)oc12 [methoxsalen],PPB (fb),[3],0.83
O=c1n(CCCN2CCN(c3cccc(Cl)c3)CC2)nc2ccccn12 [trazodone],PPB (fb),[1],0.92
COC(=O)C(c1ccccc1)C1CCCCN1 (stereo not shown) [Methylphenidate],PPB (fb),plasma,0.18
Isradipine,PPB (fb),plasma,0.95
CC(C)C[C@H](NC(=O)[C@@H](COC(C)(C)C)NC(=O)[C@H](Cc1ccc(O)cc1)NC(=O)[C@H](CO)NC(=O)[C@H](Cc1c[nH]c2ccccc12)NC(=O)[C@H](Cc1cnc[nH]1)NC(=O)[C@@H]1CCC(=O)N1)C(=O)N[C@@H](CCCNC(=N)N)C(=O)N1CCC[C@H]1C(=O)NNC(N)=O [goserelin],PPB (fb),"human, plasma",0.2
COc1ccc2c(c1)N(C[C@H](C)CN(C)C)c1ccccc1S2 [methotrimeprazine],PPB (fb),[3],0.98
COc1ccc([C@@H]2Sc3ccccc3N(CCN(C)C)C(=O)[C@@H]2OC(C)=O)cc1 [Diltiazem],PPB (fb),[1],0.81
OCCN1CCN(CCCN2c3ccccc3Sc3ccc(C(F)(F)F)cc32)CC1 [fluphenazine],PPB (fb),[3],0.95
O=C(O)[C@@H]1C[C@@H](C2CCCCC2)CN1C(=O)CP(=O)(O)CCCCc1ccccc1 [Fosinoprilat],PPB (fb),[2],0.99
COc1ccccc1OCCNCC(O)COc1cccc2[nH]c3ccccc3c12 (stereo not shown) [Carvedilol],PPB (fb),[1],0.96
CNCCC=C1c2ccccc2CCc2ccccc21 [Nortriptyline],PPB (fb),[1],0.91
CCN(CCO)CCCC(C)Nc1ccnc2cc(Cl)ccc12 (stereo not shown) [Hydroxychloroquine],PPB (fb),[1],0.46
C[C@](N)(Cc1ccc(O)c(O)c1)C(=O)O [Methyldopa],PPB (fb),[2],0.13
N=C(N)c1ccc(OCCCCCOc2ccc(C(=N)N)cc2)cc1 [pentamidine],PPB (fb),[3],0.7
CCC1=C(C)CN(C(=O)NCCc2ccc(S(=O)(=O)NC(=O)N[C@H]3CC[C@H](C)CC3)cc2)C1=O [Glimepiride],PPB (fb),[1],0.99
ethyl-biscoumacetate,PPB (fb),plasma,0.9
CCc1nn(CCCN2CCN(c3cccc(Cl)c3)CC2)c(=O)n1CCOc1ccccc1 [Nefazodone],PPB (fb),[1],0.99
C[C@H](N[C@@H](CCc1ccccc1)C(=O)O)C(=O)N1[C@H](C(=O)O)C[C@H]2CCCC[C@@H]21 [trandolaprilat],PPB (fb),[1],0.94
CC1(C)SC2C(NC(=O)c3cccc4ccccc34)C(=O)N2C1C(=O)O (stereo not shown) [penicillin64],PPB (fb),[2],0.86
CC(C)(O)C(=O)Nc1ccc([N+](=O)[O-])c(C(F)(F)F)c1 [hydroxyflutamide],PPB (fb),[3],0.93
C[C@@H]1O[C@@H](O[C@@H]2C=C3CC[C@@H]4[C@H](CC[C@]5(C)[C@@H](c6ccc(=O)oc6)CC[C@]45O)[C@@]3(C)CC2)[C@H](O)[C@H](O)[C@H]1O [proscillaridin],PPB (fb),plasma,0.85
CC[C@H]1OC(=O)[C@H](C)C(=O)[C@H](C)[C@@H](O[C@@H]2O[C@H](C)C[C@H](N(C)C)[C@H]2O)[C@](C)(OC)C[C@@H](C)C(=O)[C@H](C)[C@H]2N(CCCCn3cnc(-c4cccnc4)c3)C(=O)O[C@]12C [Telithromycin],PPB (fb),[3],0.59
